{"source": "patent US20060246003A1", "about": "“Composition containing anti-dementia drug” (priority 2004, published 2006)", "origin": "cited, not measured here", "system": "patients with moderate to severe Alzheimer-type dementia", "settings": "memantine hydrochloride added in patients already administered donepezil hydrochloride, compared to placebo group", "note": "Counter-ions that a name gives are not always drawn."}
{"smiles": "CC12CC3CC(C)(C1)CC(N)(C3)C2", "note": "[memantine hydrochloride]", "values": [{"measurement": "cognitive ability and activities of daily living", "result": "improved"}]}
